Test results as given in PubChem BioAssay (NCI).
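Assay format: 96-well plates, 48-hour exposure. Abbreviation: GI50, concentration required for 50% inhibition of growth. TGI is the concentration that stops growth completely.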

Experiments:
Assay in all cases: NCI anticancer screen, dose series, 48 h
[1] = tested on: DU-145 prostate
[2] = tested on: A498 renal
[3] = tested on: 786-0 renal
[4] = tested on: SNB-75 CNS
[5] = tested on: NCI-H522 lung
[6] = tested on: HS 578T breast
[7] = tested on: NCI-H23 lung
[8] = tested on: OVCAR-3 ovarian
[9] = tested on: SK-MEL-2 melanoma
[10] = tested on: U251 CNS
[11] = tested on: MDA-MB-435
[12] = tested on: RXF 393 renal
[13] = tested on: SF-539 CNS
[14] = tested on: HL-60(TB) leukemia
[15] = tested on: HOP-92 NSCLC
[16] = tested on: ACHN renal
[17] = tested on: M14 melanoma
[18] = tested on: MDA-MB-231 breast
[19] = tested on: SF-268 CNS
[20] = tested on: SK-OV-3 ovarian
[21] = tested on: UACC-62 melanoma
[22] = tested on: BT-549 breast
[23] = tested on: IGROV1 ovarian
[24] = tested on: TK-10 renal
[25] = tested on: COLO 205 colon
[26] = tested on: SF-295 CNS
[27] = tested on: SNB-19 CNS
[28] = tested on: HOP-62 NSCLC
[29] = tested on: HT29 colon
[30] = tested on: OVCAR-8 ovarian
[31] = tested on: UACC-257 melanoma
[32] = tested on: MOLT-4 leukemia
[33] = tested on: T-47D breast
[34] = tested on: HCC-2998 colon
[35] = tested on: SK-MEL-28 melanoma
[36] = tested on: SK-MEL-5 melanoma
[37] = tested on: LOX IMVI melanoma
[38] = tested on: EKVX NSCLC
[39] = tested on: OVCAR-5 ovarian
[40] = tested on: K-562 leukemia
[41] = tested on: NCI-H460 lung
[42] = tested on: NCI/ADR-RES ovarian
[43] = tested on: RPMI-8226 leukemia
[44] = tested on: CCRF-CEM leukemia
[45] = tested on: KM12 colon
[46] = tested on: PC-3 prostate
[47] = tested on: UO-31 renal
[48] = tested on: NCI-H226 lung
[49] = tested on: HCT-116 colon
[50] = tested on: SR leukemia
[51] = tested on: MALME-3M melanoma

CCCCCN1C(=O)/C(=c2\sc3n(c2=O)C2C(NN=3)N(CC)C(=O)N2CC)c2ccccc21 (centres undefined)
GI50 [1]: 2010 nM | TGI [1]: 4520 nM | GI50 [2]: 274 nM | TGI [2]: 1670 nM | GI50 [3]: 1590 nM | TGI [3]: 3270 nM | GI50 [4]: 260 nM | TGI [4]: 1370 nM | GI50 [5]: 754 nM | TGI [5]: 2290 nM | GI50 [6]: 1030 nM | TGI [6]: 4480 nM | GI50 [7]: 1830 nM | TGI [7]: 5230 nM | GI50 [8]: 1410 nM | TGI [8]: 3010 nM | GI50 [9]: 1550 nM | TGI [9]: 3300 nM | GI50 [10]: 1310 nM | TGI [10]: 2720 nM | GI50 [11]: 320 nM | TGI [11]: 1080 nM | GI50 [12]: 798 nM | TGI [12]: 2830 nM | GI50 [13]: 1300 nM | TGI [13]: 2610 nM | GI50 [14]: 1910 nM | TGI [14]: 4070 nM | GI50 [15]: 1220 nM | TGI [15]: 3720 nM | GI50 [16]: 1170 nM | TGI [16]: 2580 nM | GI50 [17]: 1280 nM | TGI [17]: 3980 nM | GI50 [18]: 1870 nM | TGI [18]: 4340 nM | GI50 [19]: 1490 nM | TGI [19]: 3770 nM | GI50 [20]: 1440 nM | TGI [20]: 2920 nM | GI50 [21]: 1060 nM | TGI [21]: 3290 nM | GI50 [22]: 2410 nM | TGI [22]: 10700 nM | GI50 [23]: 1650 nM | TGI [23]: 4150 nM | GI50 [24]: 1800 nM | TGI [24]: 3440 nM | GI50 [25]: 1550 nM | TGI [25]: 3560 nM | GI50 [26]: 833 nM | TGI [26]: 3210 nM | GI50 [27]: 1880 nM | TGI [27]: 5250 nM | GI50 [28]: 1620 nM | TGI [28]: 3830 nM | GI50 [29]: 1650 nM | TGI [29]: 3020 nM

COc1ccc2nc3c(n2c1)C(=O)C(=O)c1ccccc1-3
GI50 [1]: 1660 nM | TGI [1]: 3180 nM | GI50 [2]: 2440 nM | TGI [2]: 6110 nM | GI50 [30]: 2410 nM | TGI [30]: 9360 nM | GI50 [31]: 1730 nM | TGI [31]: 3130 nM | GI50 [32]: 2430 nM | TGI [32]: 5810 nM | GI50 [33]: 2020 nM | TGI [33]: 5500 nM | GI50 [34]: 1830 nM | TGI [34]: 3630 nM | GI50 [3]: 2070 nM | TGI [3]: 4400 nM | GI50 [4]: 1400 nM | TGI [4]: 2770 nM | GI50 [35]: 1890 nM | TGI [35]: 3520 nM | GI50 [5]: 1540 nM | TGI [5]: 3390 nM | GI50 [36]: 1670 nM | TGI [36]: 3060 nM | GI50 [37]: 466 nM | TGI [37]: 1890 nM | GI50 [38]: 1800 nM | TGI [38]: 4830 nM | GI50 [39]: 1800 nM | TGI [39]: 3320 nM | GI50 [40]: 939 nM | TGI [40]: 6090 nM | GI50 [41]: 1630 nM | TGI [41]: 3650 nM | GI50 [7]: 1160 nM | TGI [7]: 4210 nM | GI50 [9]: 1830 nM | TGI [9]: 3660 nM | GI50 [42]: 2060 nM | TGI [42]: 6580 nM | GI50 [43]: 1520 nM | TGI [43]: 5360 nM | GI50 [10]: 1510 nM | TGI [10]: 2850 nM | GI50 [11]: 192 nM | TGI [11]: 353 nM | GI50 [12]: 1840 nM | TGI [12]: 3550 nM | GI50 [44]: 2600 nM | TGI [44]: 6620 nM | GI50 [13]: 1820 nM | TGI [13]: 3240 nM | GI50 [14]: 2230 nM | TGI [14]: 5570 nM | GI50 [45]: 2050 nM | TGI [45]: 5040 nM | GI50 [15]: 3090 nM | TGI [15]: 9530 nM | GI50 [16]: 1460 nM | TGI [16]: 2770 nM | GI50 [17]: 1750 nM | TGI [17]: 3320 nM | GI50 [18]: 2530 nM | TGI [18]: 10600 nM | GI50 [19]: 2050 nM | TGI [19]: 5150 nM | GI50 [20]: 1750 nM | TGI [20]: 3570 nM | GI50 [21]: 1470 nM | TGI [21]: 2900 nM | GI50 [46]: 1520 nM | TGI [46]: 9020 nM | GI50 [47]: 1310 nM | TGI [47]: 2620 nM | GI50 [48]: 2030 nM | TGI [48]: 4890 nM | GI50 [22]: 1390 nM | TGI [22]: 2690 nM | GI50 [23]: 1750 nM | TGI [23]: 5340 nM | GI50 [24]: 2620 nM | TGI [24]: 4780 nM | GI50 [25]: 2730 nM | TGI [25]: 8140 nM | GI50 [49]: 1580 nM | TGI [49]: 3700 nM | GI50 [26]: 1620 nM | TGI [26]: 3030 nM | GI50 [27]: 1980 nM | TGI [27]: 4400 nM | GI50 [50]: 2530 nM | TGI [50]: 6590 nM | GI50 [29]: 2590 nM | TGI [29]: 6190 nM | GI50 [51]: 1550 nM | TGI [51]: 2930 nM
